For 17 molecules, Resistance, IC90 and Ki results are on record in ChEMBL document CHEMBL1130161, “Cyclic urea amides: HIV-1 protease inhibitors with low nanomolar potency against both wild type and protease inhibitor resistant mutants of HIV” (J Med Chem, 1997).

Some results are limits rather than exact numbers.

Assay [1] deals with Human immunodeficiency virus. Kind of assay: Resistance of constructed mutant 84V virus was calculated as (IC90 for a mutant virus / IC90 of wt HXB2 virus). In kind it is functional.
In assay [2] the test system is Human immunodeficiency virus. The assay can be described thus: Resistance of constructed mutant MK639 virus was calculated as (IC90 for a mutant virus / IC90 of wt HXB2 virus). The assay is classed as functional.
The subject of assay [3] is Human immunodeficiency virus. The assay can be described thus: Resistance of constructed mutant […]/47V/50V virus was calculated as (IC90 for a mutant virus / IC90 of wt HXB2 virus). The assay is classed as functional.
Assay [4] has as its system Human immunodeficiency virus. Kind of assay: Resistance of constructed mutant 82A virus was calculated as (IC90 for a mutant virus / IC90 of wt HXB2 virus). In kind it is functional.
Assay [5] addresses Human immunodeficiency virus type 1 protease (Human immunodeficiency virus 1) (UniProt Q72874). The assay can be described thus: Inhibitory concentration against accumulation of viral p24 antigen following infection of MT-4 cells. In kind it is functional, cell-based. The following applies: MT4.
Assay [6] can be described thus: Resistance of constructed mutant 82F virus was calculated as (IC90 for a mutant virus / IC90 of wt HXB2 virus). In kind it is functional.
Assay [7] concerns Human immunodeficiency virus. Kind of assay: Resistance of constructed mutant 48V/90M virus was calculated as (IC90 for a mutant virus / IC90 of wt HXB2 virus). In kind it is functional.
Assay [8] concerns the target Human immunodeficiency virus type 1 protease (Human immunodeficiency virus 1, UniProt Q72874). Kind of assay: Binding affinity to inhibit the purified wild-type HIV-1 Protease.
The subject of assay [9] is Human immunodeficiency virus. The assay can be described thus: Resistance of constructed mutant ABT538 virus was calculated as (IC90 for a mutant virus / IC90 of wt HXB2 virus). In kind it is functional.

Consider `Nc1cccc(CN2C(=O)N(Cc3cccc(N)c3)[C@H](Cc3ccccc3)[C@H](O)[C@@H](O)[C@H]2Cc2ccccc2)c1` [MOZENAVIR], for which the Resistance in [1] was 9.9; in assay [2], 27; in [3], 7.5; in assay [4] it was 2.5; in assay [6] it was 5.3; in assay [7] it was 1.5. Also, the Resistance in assay [9] is 49. For the same molecule, it took 120 nM to reach the 90% level in assay [5] (IC90). This molecule came in with a Ki in assay [8] of 0.34 nM.
Turning to `O=C(Nc1ncc[nH]1)c1cccc(CN2C(=O)N(CC3CC3)[C@H](Cc3ccccc3)[C@H](O)[C@@H](O)[C@H]2Cc2ccccc2)c1`, the results for the Resistance in assay [2] and in assay [9] were 12 and 83, respectively. In assay [5], this molecule registered an IC90 of 28 nM. This molecule also yielded a Ki in assay [8] of 0.016 nM.
For the molecule `O=C(Nc1ncc[nH]1)c1cccc(CN2C(=O)N(Cc3ccccc3)[C@H](Cc3ccccc3)[C@H](O)[C@@H](O)[C@H]2Cc2ccccc2)c1`, the Resistance in [1] is given as 2.9; in assay [2], 15; in assay [4], 1; in [6], 0.5; in assay [7] it was 0.6; in [9], 29. The molecule further came in with an IC90 in [5] of 21 nM. The molecule also yielded a Ki in [8] of 0.033 nM.
`O=C(Nc1ncc[nH]1)c1cccc(CN2C(=O)N(Cc3cccc(C(=O)Nc4ncc[nH]4)c3)[C@H](Cc3ccccc3)[C@H](O)[C@@H](O)[C@H]2Cc2ccccc2)c1`: the Resistance in assay [1] is reported as 0.7; in assay [2], 0.4; in assay [3], 0.4; in assay [4], 2.7; in [6] it was 1.6; in [7] it was 0.1. The Resistance in [9] is on record as 0.2. Besides, the IC90 in [5] was 19 nM.
Consider `O=C(Nc1nc2ccccc2[nH]1)c1cccc(CN2C(=O)N(CC3CC3)[C@H](Cc3ccccc3)[C@H](O)[C@@H](O)[C@H]2Cc2ccccc2)c1`, for which the Resistance is on record as 8.4 in assay [1]; 26 in assay [2]; 2.1 in [3]; 1.9 in assay [4]; 2.1 in [6]; 1.9 in assay [7]. Further, the Resistance in assay [9] is given as 86. This molecule yielded an IC90 in [5] of 17 nM. The Ki in [8] worked out at 0.037 nM.
For the molecule `O=C(Nc1nccs1)c1cccc(CN2C(=O)N(CC3CC3)[C@H](Cc3ccccc3)[C@H](O)[C@@H](O)[C@H]2Cc2ccccc2)c1`, the Resistance is recorded as 6.1 in assay [1]; 18.5 in assay [2]; 11 in assay [3]; 1.8 in assay [4]; 4.1 in [6]; 0.9 in assay [7]. In addition, in assay [9], the Resistance was 41. It took 40 nM to reach the 90% level in assay [5] (IC90).
On to `CC(C)(C)NC(=O)[C@@H]1CN(Cc2cccnc2)CCN1C[C@@H](O)C[C@@H](Cc1ccccc1)C(=O)N[C@H]1c2ccccc2C[C@H]1O.O`, for which the Resistance in [1] is reported as 0.5; in assay [2], 18; in assay [3], 1.8; in [4], 2.5; in assay [6] it was 2.8; in assay [7], 3.6. Moreover, in [9], the Resistance is given as 6.5. The molecule also showed a 90% effect concentration (IC90) in assay [5] of 28 nM.
On to `O=C1N(CC2CC2)[C@H](Cc2ccccc2)[C@H](O)[C@@H](O)[C@@H](Cc2ccccc2)N1CC1CC1`, for which the Resistance was 6.6 in assay [1]; 11 in [2]; 1.7 in [3]; 1.4 in assay [4]; 4 in assay [6]; 1.3 in [7]. Further, the Resistance in assay [9] is reported as 7.2. The same molecule had an IC90 in assay [5] of 2100 nM.
As for `CC(C)c1nc(CN(C)C(=O)N[C@H](C(=O)N[C@@H](Cc2ccccc2)C[C@H](O)[C@H](Cc2ccccc2)NC(=O)OCc2cncs2)C(C)C)cs1` [RITONAVIR], the Resistance in assay [1] is 2.4; in [2], 5.5; in assay [3], 6; in [4], 7.1; in assay [6], 8.9; in assay [7] it was 5. Also, in [9], the Resistance is given as 30.
Take `CC(C)CN(C[C@@H](O)[C@H](Cc1ccccc1)NC(=O)O[C@H]1CCOC1)S(=O)(=O)c1ccc(N)cc1`: the Resistance in [1] is 1.5; in [2], 3.8; in assay [3] it was 39; in assay [4], 2.2; in assay [6] it was 1.9; in assay [7], 1.1. In addition, in assay [9], the Resistance was 13. Also, the IC90 in [5] is 81 nM.
`O=C1N(Cc2ccc(CO)cc2)[C@H](Cc2ccccc2)[C@H](O)[C@@H](O)[C@@H](Cc2ccccc2)N1Cc1ccc(CO)cc1` [DMP-323]: the Resistance in assay [1] is 22; in assay [2], 18; in assay [3], 11; in assay [4], 2.8; in assay [6], 7.1; in [7], 0.3. Moreover, in assay [9], the Resistance is 93. Also, in assay [5], it took 95 nM to reach the 90% level (IC90).
For the molecule `CC(C)[C@H](NC(=O)OCc1ccccc1)C(=O)N[C@@H](Cc1ccccc1)[C@H](O)[C@@H](O)[C@@H](Cc1ccccc1)NC(=O)[C@H](NC(=O)OCc1ccccc1)C(C)C`, the Resistance in [1] is 2.1; in assay [2], above 150; in assay [3], 6.5; in assay [4], 6; in [6], 1.8; in [7] it was 1.3. In addition, in [9], the Resistance is 13. It took 195 nM to reach the 90% level in [5] (IC90). The molecule further yielded a Ki in assay [8] of 0.25 nM.
Turning to `CCCCN1C(=O)N(Cc2cccc(C(=O)Nc3ncc[nH]3)c2)[C@H](Cc2ccccc2)[C@H](O)[C@@H](O)[C@H]1Cc1ccccc1`, the Resistance in assay [1] is 4.2; in assay [2], 14.5; in assay [4], 1.4; in assay [6], 14.5; in [7] it was 1; in [9] it was 27. The molecule also gave an IC90 in assay [5] of 18 nM. In addition, in assay [8], the Ki amounted to 0.025 nM.
For the molecule `O=C(Nc1nc2ccccc2[nH]1)c1cccc(CN2C(=O)N(Cc3cccc(C(=O)Nc4nc5ccccc5[nH]4)c3)[C@H](Cc3ccccc3)[C@H](O)[C@@H](O)[C@H]2Cc2ccccc2)c1`, the Resistance in assay [1] is on record as 0.6; in [2], 0.7; in assay [3] it was 1; in assay [4], 0.8; in assay [6], 0.3; in assay [7] it was 0.3. For the same molecule, in [9], the Resistance is 1.2. The IC90 in [5] was 5.1 nM.
On to `CC(C)(C)NC(=O)[C@@H]1C[C@@H]2CCCC[C@@H]2CN1C[C@@H](O)[C@H](Cc1ccccc1)NC(=O)[C@H](CC(N)=O)NC(=O)c1ccc2ccccc2n1`, for which the Resistance in assay [1] is on record as 0.7; in [2], 5.3; in assay [4] it was 0.9; in assay [6], 0.4; in assay [7], 20; in assay [9] it was 0.6. The IC90 in [5] came to 15 nM.
As to `O=C(Nc1nccs1)c1cccc(CN2C(=O)N(Cc3ccccc3)[C@H](Cc3ccccc3)[C@H](O)[C@@H](O)[C@H]2Cc2ccccc2)c1`, the Resistance in assay [1] is given as 7.2; in assay [2], 10; in assay [3], 10.2; in assay [4], 4.9; in assay [6], 3; in [7], 1.9. In assay [9], the Resistance is 31. This molecule yielded an IC90 in assay [5] of 74 nM. The same molecule showed a Ki in assay [8] of 0.074 nM.
As to `O=C(Nc1nccs1)c1cccc(CN2C(=O)N(Cc3cccc(C(=O)Nc4nccs4)c3)[C@H](Cc3ccccc3)[C@H](O)[C@@H](O)[C@H]2Cc2ccccc2)c1`, the Resistance was 1.2 in [1]; 8.7 in assay [2]; 23 in assay [3]; 2.2 in assay [4]; 0.9 in assay [6]; 0.2 in [7]. Besides, the Resistance in [9] is 24. This molecule also showed an IC90 in assay [5] of 4.2 nM.
